This passage reports EC50 results from patent US20230219931A1, “FUSED HETEROARYL HYDROXAMATES AS STING AGONISTS” (BiSiChem Co., Ltd., priority 2022, published 2023).

Where a name gives a salt, the structure may show the parent alone. Some results are limits rather than exact numbers.

This test has as its system ISG reporter activity in THP1-Dual cell. Nature of the test: ISG reporter assay. The format is cell-based. The settings on record: Homo sapiens, compounds incubated with cells for 24 hours, QUANTI-Blue, absorbance at 655 nm. (In general: Reporter assays use an easily measured gene product as a stand-in for the process of interest.)

In turn, `CCn1nc(C)cc1C(=O)Nc1nc2cc(C(N)=O)cc(OC)c2n1C/C=C/Cn1c(NC(=O)c2cc(C)nn2CC)nc2cc(C(N)=O)cc(OCC#CC3CCN(C(=O)OC(C)(C)C)CC3)c21` [Example 3, tert-butyl (E)-4-(3-((5-carbamoyl-1-(4-(5-carbamoyl-2-(1-ethyl-3-methyl-1H-pyrazole-5-carboxamido)-7-methoxy-1H-benzo[d]imidazol-1-yl)but-2-en-1-yl)-2-(1-ethyl-3-methyl-1H-pyrazole-5-carboxamido)-1H-benzo[d]imidazol-7-yl)oxy)prop-1-yn-1-yl)piperidine-1-carboxylate] came in with an EC50 of less than 50 nM.

Turning to `CCn1nc(C)cc1C(=O)Nc1nc2cc(C(N)=O)cc(OC)c2n1C/C=C/Cn1c(NC(=O)c2cc(C)nn2CC)nc2cc(C(N)=O)cc(OCC#CC3CN(C(=O)OC(C)(C)C)C3)c21` [Example 30, tert-butyl (E)-3-(3-((5-carbamoyl-1-(4-(5-carbamoyl-2-(1-ethyl-3-methyl-1H-pyrazole-5-carboxamido)-7-methoxy-1H-benzo[d]imidazol-1-yl)but-2-en-1-yl)-2-(1-ethyl-3-methyl-1H-pyrazole-5-carboxamido)-1H-benzo[d]imidazol-7-yl)oxy)prop-1-yn-1-yl)azetidine-1-carboxylate], the concentration giving a half-maximal response (EC50) is less than 50 nM. The value for `CCn1nc(C)cc1C(=O)Nc1nc2cc(C(N)=O)cc(OC)c2n1C/C=C/Cn1c(NC(=O)c2cc(C)nn2CC)nc2cc(C(N)=O)cc(OCC#CCC3CCNCC3)c21` [Example 43, (E)-1-(4-(5-carbamoyl-2-(1-ethyl-3-methyl-1H-pyrazole-5-carboxamido)-7-((4-(piperidin-4-yl)but-2-yn-1-yl)oxy)-1H-benzo[d]imidazol-1-yl)but-2-en-1-yl)-2-(1-ethyl-3-methyl-1H-pyrazole-5-carboxamido)-7-methoxy-1H-benzo[d]imidazole-5-carboxamide hydrochloride] was 50 to 500 nM; that for `CCn1nc(C)cc1C(=O)Nc1nc2cc(C(N)=O)cc(OC)c2n1C/C=C/Cn1c(NC(=O)c2cc(C)nn2CC)nc2cc(C(N)=O)cc(OCC#CC3CCN(C(=O)C(C)(C)C)CC3)c21` [Example 11, (E)-1-(4-(5-carbamoyl-2-(1-ethyl-3-methyl-1H-pyrazole-5-carboxamido)-7-((3-(1-pivaloylpiperidin-4-yl)prop-2-yn-1-yl)oxy)-1H-benzo[d]imidazol-1-yl)but-2-en-1-yl)-2-(1-ethyl-3-methyl-1H-pyrazole-5-carboxamido)-7-methoxy-1H-benzo[d]imidazole-5-carboxamide] was less than 50 nM.

With `CCn1nc(C)cc1C(=O)Nc1nc2cc(C(N)=O)cc(OC)c2n1C/C=C/Cn1c(NC(=O)c2cc(C)nn2CC)nc2cc(C(N)=O)cc(OCC#CC3CCN(C(=O)OC4CCN(C(=O)OC(C)(C)C)CC4)CC3)c21` [Example 8, 1-(tert-butoxycarbonyl)piperidin-4-yl (E)-4-(3-((5-carbamoyl-1-(4-(5-carbamoyl-2-(1-ethyl-3-methyl-1H-pyrazole-5-carboxamido)-7-methoxy-1H-benzo[d]imidazol-1-yl)but-2-en-1-yl)-2-(1-ethyl-3-methyl-1H-pyrazole-5-carboxamido)-1H-benzo[d]imidazol-7-yl)oxy)prop-1-yn-1-yl)piperidine-1-carboxylate], the concentration for a half-maximal effect (EC50) was less than 50 nM. The value for `CCn1nc(C)cc1C(=O)Nc1nc2cc(C(N)=O)cc(OC)c2n1C/C=C/Cn1c(NC(=O)c2cc(C)nn2CC)nc2cc(C(N)=O)cc(OCC#CC3CCN(S(=O)(=O)N4CCOCC4)CC3)c21` [Example 27, (E)-1-(4-(5-carbamoyl-2-(1-ethyl-3-methyl-1H-pyrazole-5-carboxamido)-7-((3-(1-(morpholinosulfonyl)piperidin-4-yl)prop-2-yn-1-yl)oxy)-1H-benzo[d]imidazol-1-yl)but-2-en-1-yl)-2-(1-ethyl-3-methyl-1H-pyrazole-5-carboxamido)-7-methoxy-1H-benzo[d]imidazole-5-carboxamide] was less than 50 nM; that for `CCn1nc(C)cc1C(=O)Nc1nc2cc(C(N)=O)cc(OC)c2n1C/C=C/Cn1c(NC(=O)c2cc(C)nn2CC)nc2cc(C(N)=O)cc(OCC#CC3CCCN(C(=O)OC(C)(C)C)C3)c21` (centres unmarked) [Example 32, tert-butyl (E)-3-(3-((5-carbamoyl-1-(4-(5-carbamoyl-2-(1-ethyl-3-methyl-1H-pyrazole-5-carboxamido)-7-methoxy-1H-benzo[d]imidazol-1-yl)but-2-en-1-yl)-2-(1-ethyl-3-methyl-1H-pyrazole-5-carboxamido)-1H-benzo[d]imidazol-7-yl)oxy)prop-1-yn-1-yl)piperidine-1-carboxylate] was less than 50 nM; that for `CCn1nc(C)cc1C(=O)Nc1nc2cc(C(N)=O)cc(OC)c2n1C/C=C/Cn1c(NC(=O)c2cc(C)nn2CC)nc2cc(C(N)=O)cc(OCC#CC3CCN(S(=O)(=O)C4CC4)CC3)c21` [Example 21, (E)-1-(4-(5-carbamoyl-2-(1-ethyl-3-methyl-1H-pyrazole-5-carboxamido)-7-methoxy-1H-benzo[d]imidazol-1-yl)but-2-en-1-yl)-7-((3-(1-(cyclopropylsulfonyl)piperidin-4-yl)prop-2-yn-1-yl)oxy)-2-(1-ethyl-3-methyl-1H-pyrazole-5-carboxamido)-1H-benzo[d]imidazole-5-carboxamide] was less than 50 nM.

The term EC50 denotes the concentration needed to bring the measured effect to its halfway point. A higher EC50 goes with a less potent agent.
